Where “and” joins values, the source holds several entries; their conditions need not be identical. Equal values may be shown once. Entries after “also recorded” stand apart in the source; their conditions may differ.
What was measured:
estrogen receptor = molecular target: T1, estrogen receptor (Homo sapiens, UniProt P03372); assay: Testing of antiestrogens for function as SERM
T1 sequence (P03372 1-595): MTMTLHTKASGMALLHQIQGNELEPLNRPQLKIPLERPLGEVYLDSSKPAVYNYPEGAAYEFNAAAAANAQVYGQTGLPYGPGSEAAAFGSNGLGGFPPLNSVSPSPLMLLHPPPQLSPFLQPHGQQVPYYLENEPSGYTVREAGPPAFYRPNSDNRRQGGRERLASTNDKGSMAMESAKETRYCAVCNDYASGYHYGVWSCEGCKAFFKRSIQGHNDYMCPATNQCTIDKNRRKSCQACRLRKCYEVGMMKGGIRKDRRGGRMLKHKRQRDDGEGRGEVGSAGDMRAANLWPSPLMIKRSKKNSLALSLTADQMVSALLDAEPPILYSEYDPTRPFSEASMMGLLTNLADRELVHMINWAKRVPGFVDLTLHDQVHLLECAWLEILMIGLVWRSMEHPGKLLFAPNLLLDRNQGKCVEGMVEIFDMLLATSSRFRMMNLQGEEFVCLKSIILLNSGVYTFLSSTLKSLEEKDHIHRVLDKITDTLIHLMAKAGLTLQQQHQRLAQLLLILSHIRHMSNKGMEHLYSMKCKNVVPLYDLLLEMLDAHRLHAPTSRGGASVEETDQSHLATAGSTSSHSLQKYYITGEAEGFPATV

[1] = test system: DMBA-induced mammary carcinoma; assay: Development of DMBA-induced mammary carcinoma in the rat; format: in vivo; conditions: 279 days after DMBA
Description: Female Sprague-Dawley rats [Crl:CD(SD)Br] were obtained at 44-46 days of age from Charles River Canada Inc. (St. Constant, Quebec) and housed 2 per cage in a light (12 h light/day; lights on at 07:15 h)-and temperature (22±2° C.)-controlled environment. Animals received Purina rodent chow and tap water ad libitum. The animal studies were conducted in a Canadian Council on Animal Care (CCAC)-approved facility in agreement with the CCAC Guide for Care and Use of Experimental Animals.
Mammary carcinomas were induced by a single intragastric administration of 20 mg of DMBA (Sigma Chemical Co., St. Louis, Mo.) in 1 ml of corn oil at 50-52 days of age. Two months later, tumor measurement was performed biweekly. The two largest perpendicular diameters of each tumor were recorded with calipers to estimate tumor size as described (Asselin et al., Endocrinology 101: 666-671, 1977). Tumor site, size and number were recorded.
(§1) The animals were randomly divided into groups each containing 20 rats with the exception of 40 animals in the control group. […] Treatment was initiated 3 days before the oral administration of DMBA. EM-800 was synthesized in the Medicinal Chemistry Division of our laboratory while DHEA was purchased from Steraloids Inc., Wilton, N.H.
Many of the control animals and some of EM-800- or DHEA-treated animals were sacrificed by cervical dislocation under isoflurane-induced anesthesia 6 months after DMBA administration because of the too large size of tumors. The values of tumor size and number of these rats at sacrifice, together with those measured at later time intervals from the surviving animals, were used for the later analysis of the incidence of tumors, average tumor number per tumor-bearing rat and average tumor size per tumor-bearing animal. […] Rats were sacrificed 279 days after DMBA administration.
Statistical significance was measured according to the multiple range test of Duncan-Kramer (Biometrics 12: 307-310, 1956). Analysis of the incidence of development of mammary tumors was performed using the Fisher's exact test (Conover, Practical nonparametric statistics, 2nd Edition 153-170, 1980). The data are presented as means±S.E.M.

rat [2] = assay: Urine and serum biochemical parameters of bone metabolism; format: in vivo; conditions: DHEA 10 mg percutaneously, EM-800 75 μg orally, once daily, alone or in combination, 9 months
Text: as §1
(§2) Twenty-four-hour urinary samples were collected at the end of the experiment from the first 9 rats of each group following transfer in metabolic cages (Allentown Caging Equipment Co., Allentown, N.J.). Two urinary samples were collected and analyzed on different days for each animal in order to minimize the influence of daily variation. Therefore, each value shown represents the mean of the two measurements performed on two different days. 0.5 ml of toluene was added into the urine collecting tubes to prevent urine evaporation and bacterial growth and the urinary volume was recorded. Trunk blood was collected at sacrifice and was allowed to clot at 4° C. overnight before centrifugation at 3000 rpm for 30 min.
(§3) Fresh samples were used for the assay of urinary creatinine, calcium, and phosphorus as well as serum total alkaline phosphatase (tALP) activity, cholesterol and triglycerides. These biochemical parameters were measured automatically with a Monarch 2000 Chemistry System (Instrumentation Laboratory Co. Lexington, Mass.) under Good Laboratory Practice conditions. Urinary hydroxyproline was measured as described (Podenphant et al., Clinica Chimica Acta 142: 145-148, 1984).

[3] = test system: human ZR-75-1 breast tumor xenografts; assay: Growth of human ZR-75-1 breast tumor xenografts in OVX nude mice supplemented with estrone; conditions: OVX+E1 0.5 μg nude mice, 9.5 months; for average tumor weight: E1 control 1.12±0.26
rat [4] = assay: Serum triglyceride and cholesterol levels after 9-month treatment; format: in vivo; conditions: DHEA 10 mg percutaneously, EM-800 75 μg orally, once daily, alone or in combination, 9 months
Text: as §1, §2, §3

## CC1=C(c2ccc(OC(=O)C(C)(C)C)cc2)[C@H](c2ccc(OCCN3CCCCC3)cc2)Oc2cc(OC(=O)C(C)(C)C)ccc21 [EM-800, (+)-7-pivaloyloxy-3-(4′-pivaloyloxyphenyl)-4-methyl-2-(4″-(2′″-piperidinoethoxy)phenyl)-2H-benzopyran]
Estrogen receptor
  function as SERM: found to function as SERMs
[1]; DHEA 10 mg percutaneously, EM-800 75 μg orally, once daily, control 95%
  incidence of DMBA-induced mammary carcinoma (animals with palpable tumors): 38%
[1]; end of experiment, DHEA 10 mg, EM-800 75 μg daily, control 4.7±0.5
  average tumor number per tumor-bearing animal: 1.4±0.3 tumors/animal
[1]; end of experiment, DHEA 10 mg, EM-800 75 μg daily, control 12.8±1.3
  average tumor area per tumor-bearing animal: 7.7±1.8 cm^2
Rat [2]
  decrease of daily urinary calcium excretion versus control: no statistically significant influence
  decrease of daily urinary phosphorus excretion versus control: no statistically significant influence
  decrease of urinary hydroxyproline/creatinine ratio versus control: 48%
  increase of serum total alkaline phosphatase (tALP) activity versus control: no statistically significant influence; also recorded: no effect
[3]; EM-800 15 μg orally daily
  Complete response, (%): 29.4%
  Complete response, number: 5
  Partial response, (%): 5.9%
  Partial response, number: 1
  Progression, (%): 35.3%
  Progression, number: 6
  Stable response, (%): 29.4%
  Stable response, number: 5
  inhibition of estrogen-stimulated ZR-75-1 tumor size: 88% and 87.5%
  average tumor weight: 0.08 ± 0.03 g
[3]; EM-800 50 μg orally daily
  Complete response, (%): 25.0%
  Complete response, number: 4
  Partial response, (%): 18.8%
  Partial response, number: 3
  Progression, (%): 25.0%
  Progression, number: 4
  Stable response, (%): 31.2%
  Stable response, number: 5
  inhibition of estrogen-stimulated ZR-75-1 tumor size: 93% and 93.5%
  average tumor weight: 0.03 ± 0.01 g
[3]; EM-800 100 μg orally daily
  Complete response, (%): 50.0%
  Complete response, number: 8
  Partial response, (%): 0 (0) %
  Partial response, number: 0 (0)
  Progression, (%): 31.2%
  Progression, number: 5
  Stable response, (%): 18.8%
  Stable response, number: 3
  inhibition of estrogen-stimulated ZR-75-1 tumor size: 94%
  average tumor weight: 0.04 ± 0.03 g
Rat [4]
  decrease of serum cholesterol levels: 45%
  decrease of serum triglyceride levels: 72%

Reference: patent publication US7943603B2, “Medical uses of a selective estrogen receptor modulator in combination with sex steroid precursors” (Endorecherche, Inc., priority 1998, dated 2011)
